Source: EP4700025A1, “AMIDE COMPOUND, PHARMACEUTICAL COMPOSITION COMPRISING SAME, AND USE THEREOF” (Suzhou Genhouse Bio Co., Ltd., priority 2023, dated 2024)

What was measured:
HCT-116 = experiment: CCK8 proliferation inhibition, HCT-116; format: cell-based; details: Homo sapiens, 192 h, CCK8, 8 days after drug treatment
HCT-116-MTAP^-/- = experiment: CCK8 proliferation inhibition, HCT-116-MTAP^-/-; format: cell-based; details: Homo sapiens, 192 h; HCT-116-MTAP^-/- (MTAP-deficient); CCK8, 8 days after drug treatment
A549 = experiment: CCK8 proliferation inhibition, A549; format: cell-based; details: Homo sapiens, 192 h, CCK8, 8 days after drug treatment
SDMA [1] = experiment: SDMA Inhibition Assay in HCT-116 cells; format: cell-based; details: Homo sapiens, HCT-116, 96 hours
SDMA [2] = experiment: SDMA Inhibition Assay in HCT-116-MTAP^-/- cells; format: cell-based; details: Homo sapiens, 96 hours
SDMA [3] = experiment: SDMA Inhibition Assay in A549 cells; format: cell-based; details: Homo sapiens, A549, 96 hours
[4] = Pharmacokinetic assay in mice; format: in vivo, Balb/c mice; details: mouse; for AUC(0-inf) / AUC(0-t) / C0 / MRT inf / Vd / Cmax / Tmax: plasma; for MRT inf: read-out: MRT(0-∞); for Vd: read-out: Vz; for F: PO 10mpk vs IV 2mpk
Procedure, shortened: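 Male Balb/c mice (6–8 weeks) were dosed 2 mg/kg IV by tail vein or 10 or 100 mg/kg by oral gavage, with the PO group fasted overnight. Orbital blood was taken from 0.083 (IV only) to 24 h for plasma. Cmax, Tmax, CL, Vss, AUC, t1/2 and bioavailability were derived from concentration–time data.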

[5] = Pharmacokinetic assay in rats; format: in vivo, SD rats; details: rat; for AUC(0-inf) / AUC(0-t) / C0 / MRT inf / Vd / Cmax / Tmax: plasma; for MRT inf: read-out: MRT(0-∞); for Vd: read-out: Vz
Protocol: In this experimental example, the pharmacokinetic behavior of the test compounds after administration by intravenous injection (IV) and oral gavage (PO) in SD rats was tested.
On the day of administration, rats were weighed for actual body weight, and the administration volume was calculated. Each compound was tested in two groups with 3 rats in each group; one group was subjected to administration by single intravenous injection, and the other group was subjected to administration by single oral gavage. The whole blood samples were collected via the jugular vein at prescribed time points (0.25 h, 0.5 h, 1 h, 2 h, 4 h, 8 h, and 24 h after administration). After the blood sample collection, the samples were immediately transferred to labeled commercial sample tubes containing K2-EDTA (0.85-1.15 mg), followed by centrifugation (3200× g, 4 °C, 10 min) and plasma collection. The plasma was transferred to a pre-cooled centrifuge tube, frozen in dry ice, and then stored in an ultra-low temperature freezer at -60 °C or lower until the LC-MS/MS analysis was performed.
Plasma concentrations were determined by the LC-MS/MS method. Plasma drug concentration data for the compounds were processed using a non-compartmental model in the WinNonlin Version 6.3 (Pharsight, Mountain View, CA) pharmacokinetic software. The relevant pharmacokinetic parameters were calculated by a linear-log trapezoidal method.

[6] = male, Balb/c, 10 mg/kg, PO 10mpk
[7] = PO 10mpk (IV reference 2mpk; 0.2mpk for I-7)

Cn1ncc2c(N)nc3cc(F)c(C(=O)N(Cc4ccc5c(c4)OC(F)(F)O5)C4CC4)cc3c21 [Example I-16]
EC50 (HCT-116): 928 nM | EC50 (HCT-116-MTAP^-/-): 3.8 nM | EC50 (A549): 24.6 nM | EC50 (SDMA [1]): 201 nM | EC50 (SDMA [2]): 1.2 nM | EC50 (SDMA [3]): 0.8 nM | AUC(0-inf) ([4]; male, Balb/c, 2 mg/kg, IV 2mpk): 6.37 µM·h | AUC(0-t) ([4]; male, Balb/c, 2 mg/kg, IV 2mpk): 6.24 µM·h | C0 ([4]; male, Balb/c, 2 mg/kg, IV 2mpk): 1960 nM | MRT inf ([4]; male, Balb/c, 2 mg/kg, IV 2mpk): 4.9 h | Vd ([4]; male, Balb/c, 2 mg/kg, IV 2mpk): 4.3 L/kg | AUC(0-inf) [4, 6]: 34.5 µM·h | AUC(0-t) [4, 6]: 34.4 µM·h | Cmax [4, 6]: 4760 nM | Tmax [4, 6]: 1 h | MRT inf [4, 6]: 5.2 h | CLz ([4]; IV 2mpk): 12 mL/min/kg | R_AUC(t/∞) ([4]; IV 2mpk): 97.9% | t1/2z ([4]; IV 2mpk): 4.4 h | R_AUC(t/∞) ([4]; PO 10mpk): 99.6% | t1/2z ([4]; PO 10mpk): 3.1 h | F [4]: 108% | AUC(0-inf) ([5]; SD, 2 mg/kg, IV 2mpk): 2.43 µM·h | AUC(0-t) ([5]; SD, 2 mg/kg, IV 2mpk): 2.15 µM·h | C0 ([5]; SD, 2 mg/kg, IV 2mpk): 1140 nM | MRT inf ([5]; SD, 2 mg/kg, IV 2mpk): 3.1 h | Vd ([5]; SD, 2 mg/kg, IV 2mpk): 5.6 L/kg | AUC(0-inf) ([5]; SD, 10 mg/kg, PO 10mpk): 13.2 µM·h | AUC(0-t) ([5]; SD, 10 mg/kg, PO 10mpk): 9.06 µM·h | Cmax ([5]; SD, 10 mg/kg, PO 10mpk): 808 nM | Tmax ([5]; SD, 10 mg/kg, PO 10mpk): 4.7 h | MRT inf ([5]; SD, 10 mg/kg, PO 10mpk): 13.2 h | CLz ([5]; IV 2mpk): 31.7 mL/min/kg | R_AUC(t/∞) ([5]; IV 2mpk): 88.8% | t1/2z ([5]; IV 2mpk): 2.3 h | R_AUC(t/∞) ([5]; PO 10mpk): 71.5% | t1/2z ([5]; PO 10mpk): 9.3 h | F [5, 7]: 84%

Cn1ncc2c(N)nc3cnc(C(=O)N4CCOC[C@@H]4c4ccc5c(c4)OC(F)(F)O5)cc3c21 [Example I-38]
EC50 (HCT-116): 313 nM | EC50 (HCT-116-MTAP^-/-): 7.4 nM | EC50 (A549): 53.7 nM | EC50 (SDMA [1]): 147 nM | EC50 (SDMA [2]): 1.5 nM | EC50 (SDMA [3]): 1.7 nM | AUC(0-t) ([4]; 2 mg/kg, IV 2mpk): 7.87 µM·h | AUC(0-t) ([4]; 100 mg/kg, PO 100mpk): 710 µM·h | Cmax ([4]; 100 mg/kg, PO 100mpk): 52100 nM | AUC(0-t) ([5]; 2 mg/kg, IV 2mpk): 4 µM·h | AUC(0-t) ([5]; 100 mg/kg, PO 100mpk): 199 µM·h | Cmax ([5]; 100 mg/kg, PO 100mpk): 10200 nM | F ([5]; PO 100mpk vs IV 2 mpk): 99%

Cn1ncc2c(N)nc3cc(F)c(C(=O)N4CCOC[C@@H]4c4ccc5c(c4)OC(F)(F)O5)cc3c21 [Example I-7]
EC50 (HCT-116): 1160 nM | EC50 (HCT-116-MTAP^-/-): 6.6 nM | EC50 (A549): 34.7 nM | EC50 (SDMA [1]): 181 nM | EC50 (SDMA [2]): 2 nM | EC50 (SDMA [3]): 1.2 nM | CLz ([4]; IV 2mpk): 13 mL/min/kg | R_AUC(t/∞) ([4]; IV 2mpk): 95.1% | t1/2z ([4]; IV 2mpk): 1.9 h | R_AUC(t/∞) ([4]; PO 10mpk): 97.1% | t1/2z ([4]; PO 10mpk): 4.9 h | F [4]: 159.9% | AUC(0-inf) ([4]; 2 mg/kg, IV 2mpk): 4.89 µM·h | AUC(0-t) ([4]; 2 mg/kg, IV 2mpk): 4.65 µM·h | C0 ([4]; 2 mg/kg, IV 2mpk): 2620 nM | MRT inf ([4]; 2 mg/kg, IV 2mpk): 2.7 h | Vd ([4]; 2 mg/kg, IV 2mpk): 2.3 L/kg | AUC(0-inf) ([4]; 10 mg/kg, PO 10mpk): 39.1 µM·h | AUC(0-t) ([4]; 10 mg/kg, PO 10mpk): 38 µM·h | Cmax ([4]; 10 mg/kg, PO 10mpk): 5010 nM | Tmax ([4]; 10 mg/kg, PO 10mpk): 2 h | MRT inf ([4]; 10 mg/kg, PO 10mpk): 6.1 h | AUC(0-inf) ([5]; 0.2 mg/kg, IV 0.2mpk): 0.22 µM·h | AUC(0-t) ([5]; 0.2 mg/kg, IV 0.2mpk): 0.148 µM·h | C0 ([5]; 0.2 mg/kg, IV 0.2mpk): 176 nM | MRT inf ([5]; 0.2 mg/kg, IV 0.2mpk): 1.8 h | Vd ([5]; 0.2 mg/kg, IV 0.2mpk): 3.5 L/kg | AUC(0-inf) ([5]; 10 mg/kg, PO 10mpk): 9.6 µM·h | AUC(0-t) ([5]; 10 mg/kg, PO 10mpk): 6.58 µM·h | Cmax ([5]; 10 mg/kg, PO 10mpk): 781 nM | Tmax ([5]; 10 mg/kg, PO 10mpk): 4.3 h | MRT inf ([5]; 10 mg/kg, PO 10mpk): 9.9 h | CLz ([5]; IV 0.2mpk): 31.7 mL/min/kg | R_AUC(t/∞) ([5]; IV 0.2mpk): 67% | t1/2z ([5]; IV 0.2mpk): 1.3 h | R_AUC(t/∞) ([5]; PO 10mpk): 76.9% | t1/2z ([5]; PO 10mpk): 8.1 h | F [5, 7]: 89.1%
